Measurements reported in ChEMBL document CHEMBL1201862, “PubChem BioAssay data set” (2004).
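Results reflect a 48-hour exposure of cells in 96-well plates to compound at five concentrations. GI50 marks 50% less growth.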 Calls of active or inactive are those of the source. Cut-off read from the data, not from the text of the source: active = GI50 up to about 1.1 µM and inactive = higher.

Experiments:
Test in all cases: DTP human tumour cell line panel, 48 h
OVCAR-8 = tested on: OVCAR-8
MDA-N = tested on: MDA-N
UACC-62 = tested on: UACC-62
NCI-H226 = tested on: NCI-H226
SNB-19 = tested on: SNB-19
SK-OV-3 = tested on: SK-OV-3
MCF7 = tested on: MCF7
CAKI-1 = tested on: CAKI-1
SK-MEL-5 = tested on: SK-MEL-5
BT-549 = tested on: BT-549
NCI/ADR-RES = tested on: NCI/ADR-RES
DU-145 = tested on: DU-145
SF-539 = tested on: SF-539
RXF 393 = tested on: RXF 393
CCRF-CEM = tested on: CCRF-CEM
TK-10 = tested on: TK-10
SN12C = tested on: SN12C
OVCAR-4 = tested on: OVCAR-4
T47D = tested on: T47D
PC-3 = tested on: PC-3

Measured: GI50

O=C1CCCC2=C1C(c1ccc3c(c1)OCO3)Nc1ccc3ccccc3c12 (configuration not stated)
inactive: OVCAR-8 87.5 µM | MDA-N 87.1 µM | UACC-62 > 100 µM | NCI-H226 > 100 µM | SNB-19 > 100 µM | SK-OV-3 > 100 µM | MCF7 > 100 µM | CAKI-1 > 100 µM | SK-MEL-5 93.5 µM | BT-549 > 100 µM | NCI/ADR-RES 55.1 µM | DU-145 > 100 µM | SF-539 > 100 µM | RXF 393 > 100 µM | CCRF-CEM > 100 µM | TK-10 > 100 µM | SN12C > 100 µM

N=C(N)Nc1ccc(CC(N)C(=O)NCC(=O)C(CC(=O)O)c2ncc(NC(=O)C(F)(F)F)o2)cc1 (configuration not stated)
inactive: OVCAR-8 > 25 µM | UACC-62 > 25 µM | NCI-H226 > 25 µM | OVCAR-4 > 25 µM | SK-OV-3 > 25 µM | MCF7 18.4 µM | CAKI-1 > 25 µM | T47D > 25 µM | SK-MEL-5 > 25 µM | BT-549 > 25 µM | PC-3 > 25 µM | NCI/ADR-RES > 25 µM | DU-145 > 25 µM | SF-539 > 25 µM | RXF 393 > 25 µM | CCRF-CEM > 25 µM | TK-10 > 25 µM | SN12C 9.27 µM

Cc1ccc(-n2cc(-c3ccc(Cl)cc3)c3c2N=CN2N=C(c4cccs4)NC32)cc1 (configuration not stated)
inactive: OVCAR-8 6.46 µM | MDA-N 26.8 µM | UACC-62 23.2 µM | NCI-H226 19.3 µM | SNB-19 17.9 µM | OVCAR-4 2.21 µM | SK-OV-3 14.9 µM | MCF7 32.5 µM | CAKI-1 16 µM | SK-MEL-5 > 100 µM | BT-549 20.1 µM | PC-3 16.5 µM | NCI/ADR-RES 9.68 µM | DU-145 > 100 µM | SF-539 16.2 µM | RXF 393 12.4 µM | CCRF-CEM 11.2 µM | TK-10 11.2 µM | SN12C 10.1 µM

[N-]=[N+]=CC(=O)OCC1SCCCS1
inactive: MDA-N > 100 µM | UACC-62 > 100 µM | NCI-H226 > 100 µM | SNB-19 > 100 µM | OVCAR-4 > 100 µM | SK-OV-3 > 100 µM | MCF7 > 100 µM | CAKI-1 50.4 µM | SK-MEL-5 > 100 µM | BT-549 > 100 µM | PC-3 > 100 µM | DU-145 > 100 µM | RXF 393 > 100 µM | CCRF-CEM > 100 µM | TK-10 > 100 µM | SN12C > 100 µM

Nc1nc(Nc2cc(F)c(Cl)c(F)c2)cc(=O)[nH]1
inactive: OVCAR-8 > 100 µM | UACC-62 68.9 µM | NCI-H226 > 100 µM | SNB-19 37 µM | OVCAR-4 > 100 µM | SK-OV-3 68.1 µM | MCF7 75.9 µM | CAKI-1 > 100 µM | T47D 77.6 µM | SK-MEL-5 53.5 µM | BT-549 60.3 µM | PC-3 > 100 µM | NCI/ADR-RES > 100 µM | DU-145 > 100 µM | SF-539 > 100 µM | CCRF-CEM 66.8 µM | TK-10 > 100 µM | SN12C > 100 µM

O=C1NC(c2ccc3ccccc3c2)Nc2ccccc21 (configuration not stated)
inactive: OVCAR-8 33.4 µM | UACC-62 21.9 µM | NCI-H226 32.1 µM | SNB-19 51.8 µM | OVCAR-4 58.5 µM | SK-OV-3 53.5 µM | MCF7 46.1 µM | CAKI-1 59.7 µM | T47D 71.4 µM | SK-MEL-5 20 µM | BT-549 5.26 µM | PC-3 27.9 µM | NCI/ADR-RES 62.4 µM | DU-145 49.5 µM | SF-539 20.7 µM | RXF 393 51.9 µM | CCRF-CEM 30.6 µM | TK-10 > 100 µM

Clc1ccc(-c2nc3ccc4ccccc4c3c3c2CCCC3)cc1
inactive: OVCAR-8 > 100 µM | MDA-N > 100 µM | UACC-62 > 100 µM | NCI-H226 > 100 µM | SNB-19 > 100 µM | SK-OV-3 > 100 µM | MCF7 > 100 µM | CAKI-1 > 100 µM | SK-MEL-5 > 100 µM | BT-549 > 100 µM | NCI/ADR-RES > 100 µM | DU-145 > 100 µM | SF-539 > 100 µM | RXF 393 > 100 µM | CCRF-CEM 68.4 µM | TK-10 > 100 µM

OCC(O)COCn1cc(Cn2ncc3c(SCc4ccccc4)ncnc32)nn1 (configuration not stated)
inactive: OVCAR-8 > 100 µM | UACC-62 > 100 µM | NCI-H226 > 100 µM | SNB-19 > 100 µM | OVCAR-4 > 100 µM | SK-OV-3 > 100 µM | MCF7 > 100 µM | CAKI-1 > 100 µM | T47D > 100 µM | SK-MEL-5 > 100 µM | BT-549 > 100 µM | PC-3 > 100 µM | NCI/ADR-RES > 100 µM | DU-145 > 100 µM | SF-539 > 100 µM | CCRF-CEM > 100 µM | TK-10 > 100 µM | SN12C > 100 µM

O=C(NC1(C(=O)NNc2nnc(-c3ccccc3)c(-c3ccccc3)n2)C(c2ccccc2)C(c2ccccc2)=NN1c1ccccc1)c1ccccc1 (configuration not stated)
inactive: OVCAR-8 > 100 µM | UACC-62 > 100 µM | NCI-H226 > 100 µM | SNB-19 > 100 µM | OVCAR-4 > 100 µM | SK-OV-3 > 100 µM | CAKI-1 > 100 µM | T47D > 100 µM | SK-MEL-5 > 100 µM | BT-549 > 100 µM | PC-3 > 100 µM | NCI/ADR-RES > 100 µM | DU-145 > 100 µM | SF-539 > 100 µM | RXF 393 22.6 µM | TK-10 > 100 µM

Nc1nc(N)nc(-c2cnccn2)n1
inactive: OVCAR-8 > 100 µM | UACC-62 > 100 µM | NCI-H226 > 100 µM | SNB-19 > 100 µM | SK-OV-3 > 100 µM | MCF7 > 100 µM | CAKI-1 > 100 µM | T47D > 100 µM | BT-549 > 100 µM | PC-3 > 100 µM | NCI/ADR-RES > 100 µM | DU-145 > 100 µM | SF-539 > 100 µM | RXF 393 > 100 µM | CCRF-CEM > 100 µM | TK-10 > 100 µM | SN12C > 100 µM

COc1cc(S(=O)(=O)Nc2nc(-c3ccc(N4C(=O)CSC4c4cccs4)cc3)cs2)ccc1Cl (configuration not stated)
inactive: OVCAR-8 33 µM | MDA-N 43.4 µM | UACC-62 83.6 µM | NCI-H226 > 100 µM | SNB-19 > 100 µM | OVCAR-4 31.3 µM | SK-OV-3 > 100 µM | MCF7 43.5 µM | CAKI-1 > 100 µM | T47D 36.8 µM | SK-MEL-5 > 100 µM | PC-3 88.3 µM | NCI/ADR-RES > 100 µM | DU-145 > 100 µM | SF-539 49.7 µM | RXF 393 24.1 µM | CCRF-CEM 17.9 µM | TK-10 > 100 µM | SN12C 25.6 µM
